Results published in patent US20230321023A1, “APPLICATION OF REGULATION OF EYE SCLERA LIPID METABOLISM TO INHIBIT MYOPIA” (Wenzhou Medical University, priority 2020, published 2023).

Tests used:
[1] = tested on: FD myopia; test: FD myopia in guinea pigs, peribulbar injection of DHA, EPA or atropine; assay type: in vivo, guinea pig; details: 2 weeks; for reduction of myopia progression vs Vehicle group: high dose 3.0 μg/day
Experimental: (§1) The test animals were British tricolored short-haired guinea pigs aged 3 weeks. The animals were subjected to monocular form deprivation (FD) by a mask method and were randomly divided into 6 groups, which were treated by peribulbar injection with the following different substances: (1) ethanol solvent group (Vehicle); (2) low-dose DHA group (1.0 μg); (3) high-dose DHA group (3.0 μg): (4) low-dose EPA group (1.0 μg); (5) high-dose EPA group (3.0 μg); and (6) 0.1% atropine group.
The measurement methods of refraction, vitreous chamber depth and eye axis length were the same as those in Example 2.

[2] = Allergy study, periocular injection in FD animals; assay type: in vivo; details: high-purity DHA 3.0 μg or DHA 3.0 μg+EPA 3.0 μg, 100 μL daily periocular, 2 weeks
Experimental: Animals were randomly divided into three groups: FD+cod liver oil (commercially available ω-3 polyunsaturated fatty acids) group; FD+high-purity drug group 1 (FD+DHA 3.0 μg); and FD+high-purity drug group 2 (FD+“DHA 3.0 μg+EPA 3.0 μg”), and both high-purity drug groups were at a high dose.
After applying a topical anesthetic (one drop of 0.5% propazocaine hydrochloride, Alcon Laboratories, Inc., Puurs, Belgium), 100 μL of drug was daily administered at the surrounding area of FD eyeballs at 9:00 a.m., continuing for 2 weeks. All injections were completed within 10 seconds under dark red light to minimize any possible impact of red light on induced myopic recovery.

[3] = Safety test, peribulbar injection of DHA; assay type: in vivo, guinea pig; details: peribulbar DHA alone, up to 3 μg/day, vs Vehicle control
Experimental: as §1

[4] = tested on: FD myopia; test: Optimal treatment scheme: peribulbar DHA/EPA formulations in young guinea pig models with FD myopia; assay type: in vivo; design: Vitreous chamber depth (difference between experimental eye and fellow eye): unit not given here; details: FD guinea pigs, total mass 3 μg; for Eye axis length (difference between experimental eye and fellow eye): in mm (unit assumed); for Myopia inhibition rate: 1 W vs Veh
Text: The optimal treatment protocol or scheme applying ω-3 by means by of feeding and peribulbar injection were investigated, respectively, and some critical findings were shown, especially when the eye was subjected to topical administration, unexpected results were obtained by using DHA alone or a composition of DHA and EPA. The basic experimental procedures were as described above.
However, as the content of EPA increases to become the predominant component (i.e., DHA:EPA<1:1), the efficacy of the mixture of DHA and EPA (the total mass of ocular topical administration is 3 μg in each case) is even better than that of DHA alone, EPA alone, or a mixture of DHA and EPA containing DHA as the main component (i.e., DHA:EPA>1:1, for example, […]) and is statistically significant (Table 1 and FIG. 12). It can be seen that the mixture of DHA and EPA that uses EPA as the predominant component or the predominant active ingredient has the optimal inhibition effect of myopia and myopia-related symptoms. Overall, all the treatment protocols in this example are very effective in inhibiting the negative refraction, eye axis elongation, and vitreous cavity depth increase.

Compound	reduced myopia rate (positive control) ([1]; 0.1% atropine) [%]	reduction of myopia progression vs Vehicle group [1] [%]	adverse reactions such as allergies [2]	ACD (anterior chamber depth) [3]	LT (lens thickness) [3]	body weight [3]	Refraction (difference between experimental eye and fellow eye) ([4]; 0 W)	Vitreous chamber depth (difference between experimental eye and fellow eye) ([4]; 0 W)	Eye axis length (difference between experimental eye and fellow eye) ([4]; 0 W)	Myopia inhibition rate [4] [%]	Refraction (difference between experimental eye and fellow eye) ([4]; 1 W)	Vitreous chamber depth (difference between experimental eye and fellow eye) ([4]; 1 W)	Eye axis length (difference between experimental eye and fellow eye) ([4]; 1 W)
CN1[C@@H]2CC[C@H]1C[C@@H](OC(=O)C(CO)c1ccccc1)C2 (stereo partly drawn) [Atropine, atropine, reference compound]	35.6	–	–	–	–	–	–	–	–	–	–	–	–
CC/C=C\C/C=C\C/C=C\C/C=C\C/C=C\C/C=C\CCC(=O)O [DHA, docosahexaenoic acid]	–	35.3	no adverse reactions such as allergies	no significant ocular differences	no significant ocular differences	no significant ocular differences	−0.23	0.00	−0.01	31.8	−2.95	0.06	0.06
CC/C=C\C/C=C\C/C=C\C/C=C\C/C=C\CCCC(=O)O [EPA, eicosapentaenoic acid]	–	29.6	–	–	–	–	−0.40	0.00	0.01	21.0	−3.42	0.07	0.07
